Measurements from patent US9975852B2, “Quinoline sulfonyl derivatives and uses thereof” (Health Sciences North Research Institute, priority 2013, dated 2018).

How the values were obtained:
[1] = system: U87MG; assay: SRB antiproliferative assay, U87MG; assay type: cell-based; conditions: Homo sapiens, U-87 MG
Protocol: Antiproliferative effects were determined by a sulforhodamine B (SRB) based protocol. For a typical screening experiment, 5,000-10,000 cells were inoculated into 100 μl medium per well of a 96-well microtiter plate as described previously. Briefly, after the inoculation, the microtiter plate was incubated at 37° C., 5% CO2, 95% air and 100% relative humidity for 24 h, prior to addition of experimental drugs. Some of the sample wells were fixed with 25 μl of 50% trichloroacetic acid (TCA) as a control of the cell population for each cell line at the time of drug addition (Tz). An aliquot of the frozen stock was thawed and diluted to the desired final maximum test-concentration with complete medium. […] The cells “stained” with SRB were solubilized with 10 mM trizma base, and the absorbance was read on an automated plate reader at a wavelength of 515-564 nm. The relative growth rate (%) was calculated for each of the compound concentrations according to the following formula: (Ti−Tz)/(C−Tz)×100 In the formula, time zero (Tz), control growth (C), and OD for different concentration of tested compounds (Ti). […] Values were calculated for each of these parameters if the level of activity was reached. However, if the effect was not reached or was exceeded, the value for that parameter was expressed as greater or less than the maximum or minimum concentration tested. […]

[2] = system: HeLa S3 cells; assay: Confocal microscopy of spindle poles, centrosomes and cytoskeleton, HeLa S3 cells; assay type: cell-based
Excerpt: All immunocytochemistry experiments were visualized by confocal microscopy using a Zeiss 510 Meta laser scanning microscope (Carl Zeiss) equipped with a 63× objective lens, unless otherwise specified herein. Three lasers were utilized for excitation with the following band pass filter settings used for detection: Argon 488 nm (band pass 505-530), HeNe 543 nm (long pass 560) and 633 nm (long pass 650). All images were captured and analyzed using LSM 510 software included with the microscope (LSM Image Examiner™, Carl Zeiss).
The synchronization at the G1/S border (more accurately at the beginning of S phase) was achieved by double thymidine block (DT). Briefly, exponentially growing cells are treated with 2.0 mM thymidine for 18 hours, followed by incubation for 11 hours in drug-free complete medium, by which time most cells are at mid-late G1 phase. The cells are then incubated for another 14 hours in 2.0 mM thymidine to arrest them at the G1/S border. To arrest cells at the G2/M phase, cells were maintained for 18 hours in complete medium containing nocodazole (50 ng/ml). Both these synchronization are reversible.
VR-23 caused the formation of multiple spindle poles during late G1 phase in HeLa S3 cells (FIG. 9). HeLa S3 cells were synchronized at G2/M by nocodazole (50 ng/ml, 18 hours), followed by incubation for 6 hours in drug-free medium (at which time they were at G1) (see, e.g., FIG. 8). Cells were then incubated in the absence (control) or presence of 5 μM VR-23 for additional 6 hours (see flow cytometry profile in FIG. 8). […] Note the presence of uneven cell sizes (arrows) which may have been generated as a result of nondisjuctional chromosome segregation during mitosis.
Exponentially growing HeLa S3 cells were treated with 5 μM VR-23 for 6 hours, fixed, stained with an antibody specific for α-tubulin and then examined by confocal fluorescent microscopy for changes to their cytoskeletal structure. Sham denotes that the sample was treated exactly the same as VR-23 sample, except that they were not exposed to VR-23. […] HeLa S3 cells were treated with 2 mM thymidine for 18 hours, followed by incubation for 11 hours in drug-free complete medium, by which time most cells were at mid-late G1 phase. The cells were then incubated for another 14 hours in 2.0 mM thymidine in the absence (control) or presence of 10 μM VR-23. Under these conditions, cells are trapped in the beginning of S phase by a second thymidine block. No centrosome was amplified in the control, while over 87% of VR-23 treated cells analyzed contained multiple centrosomes.
HeLa S3 cells synchronized at the G1/S border by DT treatment were released into cell cycle for 1-6 hours in the absence (control) (FIG. 13A) or presence (FIG. 13B) of VR-23, followed by confocal microscopy. Centrosome amplification was manifested by 3 hour post-DT, although supernumerary started to form by 2 hour post-DT (solid arrows). (Due to experimental variations, centrosome amplification is not visible by 2 hours in all instances). […] More than 70% of cells exposed to VR-23 for 12 hours during S-G2/M contained multiple centrosomes, compared to less than 4% in the control. At least 200 cells were counted for each sample, and each experiment was repeated at least three times.
HeLa S3 cells synchronized at G1/S by DT were released into normal medium for 6 hours (cells reached ˜G2/M), at which time they were exposed to VR-23 for additional 6 hours. Solid arrows denote spindle assembly complexes. […] Triple MTOC/Three-way-pull phenotype comprises usually more than 50-60% of the total population. The “No attachment” phenotype is usually observed when DNA is not completely condensed.

[3] = VR-23 for 6 hours from 6 hours post-DT

O=[N+]([O-])c1ccc(S(=O)(=O)N2CCN(c3ccnc4cc(Cl)ccc34)CC2)c([N+](=O)[O-])c1 [Compound 1, 7-Chloro-4-(4-(2,4-dinitrophenylsulfonyl)piperazin-1-yl)quinoline]
IC50 [1]: 800 ± 100 nM
Cells with multiple spindle phenotype ([2]; 5 μM VR-23, 6 hours, late G1): 44.4%
Cytoskeletal formation ([2]; 5 μM VR-23 for 6 hours, α-tubulin staining): caused abnormal cytoskeletal formation
Cells containing multiple centrosomes ([2]; 10 μM VR-23 during second thymidine block, 14 hours): over 87%
Number of cells with multiple centrosomes ([2]; 3 hours post DT): 41 ± 11.8
Number of cells with multiple centrosomes ([2]; 6 hours post DT): 55.2 ± 16.7
Number of cells with multiple centrosomes ([2]; 12 hours post DT): 73.2 ± 1.0
Mitotic cells among 352 cells counted [2, 3]: 34.1%
Mitotic cells with abnormal chromosome segregation [2, 3]: 78.3%
Triple MTOC/Three-way-pull phenotype, share of total population [2, 3]: 50-60%
Cells containing multiple centrosomes ([2]; exposed to VR-23 for 12 hours during S-G2/M): More than 70%
